# Results reported in US11697636B2, “Substituted benzamides” (Hoffmann-La Roche Inc., priority 2009, dated 2023).
# Where a name gives a salt, the structure may show the parent alone.
# Biological target: mouse TAAR1 (Mus musculus (Mouse), UniProt Q923Y8)
# Experiment: Radioligand binding assay on mouse TAAR1
# Settings: mouse TAAR1, HEK-293 membranes; first value of mouse/rat pair
# Description: For the construction of expression plasmids the coding sequences of human, rat and mouse TAAR 1 were amplified from genomic DNA essentially as described by Lindemann et al.. […] PCR products were subcloned into the pIRESneo2 vector (BD Clontech, Palo Alto, Calif.), and expression vectors were sequence verified before introduction in cell lines.
# HEK293 cells (ATCC #CRL-1573) were cultured essentially as described by Lindemann et al. (2005). […] After a culture period of about 10 d clones were isolated, expanded and tested for responsiveness to trace amines (all compounds purchased from Sigma) with the cAMP Biotrak Enzyme immunoassay (EIA) System (Amersham) following the non-acetylation EIA procedure provided by the manufacturer.
# Radioligand Binding Assay on Mouse TAAR1
# Membrane Preparation and Radioligand Binding.
# HEK-293 cells stably expressing mouse TAAR1 were maintained at 37° C. and 5% CO2 in DMEM high glucose medium, containing fetal calf serum (10%, heat inactivated for 30 min at 56° C.), penicillin/streptomycin (1%), and 375 μg/ml geneticin (Gibco). Cells were released from culture flasks using trypsin/EDTA, harvested, washed twice with ice-cold PBS (without Ca^2+ and Mg^2+), pelleted at 1′000 rpm for 5 min at 4° C., frozen and stored at −80° C. […] With each new membrane batch the dissociation constant (Kd) was determined via a saturation curve. […]
# mouse TAAR1, sequence (Q923Y8 whole entry): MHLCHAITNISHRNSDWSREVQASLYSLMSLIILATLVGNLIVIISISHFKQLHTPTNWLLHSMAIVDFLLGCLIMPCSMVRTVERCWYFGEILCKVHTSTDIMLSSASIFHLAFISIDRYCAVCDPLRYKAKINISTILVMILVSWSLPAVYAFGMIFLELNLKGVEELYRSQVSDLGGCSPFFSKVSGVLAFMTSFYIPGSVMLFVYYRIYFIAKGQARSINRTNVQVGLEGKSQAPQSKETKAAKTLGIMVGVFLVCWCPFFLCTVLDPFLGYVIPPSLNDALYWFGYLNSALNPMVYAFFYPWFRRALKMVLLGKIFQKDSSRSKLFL
smiles,measurement,value
"O=C(Nc1ccccc1)Nc1ccc(C2CCNC2)cc1 (racemic) [Example 6, (RS)-1-Phenyl-3-(4-pyrrolidin-3-yl-phenyl)-urea hydrochloride]",Ki,32 µM
